The text below walks through data of ChEMBL document CHEMBL3881527, “Multi-functional small molecules as anti-proliferative agents” (2008).

In experiment [1] the target is Epidermal growth factor receptor (Homo sapiens, UniProt P00533). Description: Inhibition of N-terminal GST-fused human EGFR (His672 to Ala1210 residues) expressed in baculovirus expression system using biotinylated PTP1B at Tyr66 as substrate preincubated for 5 mins followed by substrate addition measured after 30 mins by DELFIA.
Sequence of Epidermal growth factor receptor (P00533 whole entry, the tested form may be a part): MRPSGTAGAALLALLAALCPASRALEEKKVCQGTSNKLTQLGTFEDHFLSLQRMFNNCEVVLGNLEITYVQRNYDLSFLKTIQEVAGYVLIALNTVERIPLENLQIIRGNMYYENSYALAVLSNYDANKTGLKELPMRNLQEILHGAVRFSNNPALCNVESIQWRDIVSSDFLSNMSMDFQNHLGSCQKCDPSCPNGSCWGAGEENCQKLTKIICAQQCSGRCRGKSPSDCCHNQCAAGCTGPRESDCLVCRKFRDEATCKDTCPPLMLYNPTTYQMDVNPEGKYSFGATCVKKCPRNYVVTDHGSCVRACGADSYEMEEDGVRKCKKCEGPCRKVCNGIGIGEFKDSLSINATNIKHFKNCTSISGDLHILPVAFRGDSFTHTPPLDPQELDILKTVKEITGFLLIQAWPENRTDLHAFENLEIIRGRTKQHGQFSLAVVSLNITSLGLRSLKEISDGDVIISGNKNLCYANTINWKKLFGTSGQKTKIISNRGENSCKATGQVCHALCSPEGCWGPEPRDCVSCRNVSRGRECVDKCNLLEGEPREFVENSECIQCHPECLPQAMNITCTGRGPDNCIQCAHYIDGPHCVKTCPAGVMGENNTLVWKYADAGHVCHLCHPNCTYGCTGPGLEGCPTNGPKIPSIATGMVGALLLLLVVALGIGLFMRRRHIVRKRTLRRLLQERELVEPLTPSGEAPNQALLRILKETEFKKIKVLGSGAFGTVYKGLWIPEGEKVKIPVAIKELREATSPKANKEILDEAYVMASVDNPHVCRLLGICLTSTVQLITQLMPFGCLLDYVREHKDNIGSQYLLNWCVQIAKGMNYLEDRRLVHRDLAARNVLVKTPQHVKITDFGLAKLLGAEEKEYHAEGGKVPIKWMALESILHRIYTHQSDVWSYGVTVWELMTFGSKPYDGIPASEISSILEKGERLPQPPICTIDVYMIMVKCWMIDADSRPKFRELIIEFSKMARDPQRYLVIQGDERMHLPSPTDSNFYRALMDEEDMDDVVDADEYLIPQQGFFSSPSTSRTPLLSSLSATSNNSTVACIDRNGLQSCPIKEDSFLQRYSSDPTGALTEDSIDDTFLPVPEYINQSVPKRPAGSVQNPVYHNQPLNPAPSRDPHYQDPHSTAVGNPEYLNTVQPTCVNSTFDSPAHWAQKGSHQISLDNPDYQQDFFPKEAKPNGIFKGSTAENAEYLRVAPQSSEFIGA
The target of experiment [2] is Receptor tyrosine-protein kinase erbB-2 (Homo sapiens, UniProt P04626). Description: Inhibition of N-terminal GST-tagged human HER2 (Lys676 to Val1255 residues) expressed in baculovirus expression system using biotinylated FLT3 at Tyr589 as substrate preincubated for 5 mins followed by substrate addition measured after 30 mins by DELFIA method.
Sequence of Receptor tyrosine-protein kinase erbB-2 (P04626 whole entry, the tested form may be a part): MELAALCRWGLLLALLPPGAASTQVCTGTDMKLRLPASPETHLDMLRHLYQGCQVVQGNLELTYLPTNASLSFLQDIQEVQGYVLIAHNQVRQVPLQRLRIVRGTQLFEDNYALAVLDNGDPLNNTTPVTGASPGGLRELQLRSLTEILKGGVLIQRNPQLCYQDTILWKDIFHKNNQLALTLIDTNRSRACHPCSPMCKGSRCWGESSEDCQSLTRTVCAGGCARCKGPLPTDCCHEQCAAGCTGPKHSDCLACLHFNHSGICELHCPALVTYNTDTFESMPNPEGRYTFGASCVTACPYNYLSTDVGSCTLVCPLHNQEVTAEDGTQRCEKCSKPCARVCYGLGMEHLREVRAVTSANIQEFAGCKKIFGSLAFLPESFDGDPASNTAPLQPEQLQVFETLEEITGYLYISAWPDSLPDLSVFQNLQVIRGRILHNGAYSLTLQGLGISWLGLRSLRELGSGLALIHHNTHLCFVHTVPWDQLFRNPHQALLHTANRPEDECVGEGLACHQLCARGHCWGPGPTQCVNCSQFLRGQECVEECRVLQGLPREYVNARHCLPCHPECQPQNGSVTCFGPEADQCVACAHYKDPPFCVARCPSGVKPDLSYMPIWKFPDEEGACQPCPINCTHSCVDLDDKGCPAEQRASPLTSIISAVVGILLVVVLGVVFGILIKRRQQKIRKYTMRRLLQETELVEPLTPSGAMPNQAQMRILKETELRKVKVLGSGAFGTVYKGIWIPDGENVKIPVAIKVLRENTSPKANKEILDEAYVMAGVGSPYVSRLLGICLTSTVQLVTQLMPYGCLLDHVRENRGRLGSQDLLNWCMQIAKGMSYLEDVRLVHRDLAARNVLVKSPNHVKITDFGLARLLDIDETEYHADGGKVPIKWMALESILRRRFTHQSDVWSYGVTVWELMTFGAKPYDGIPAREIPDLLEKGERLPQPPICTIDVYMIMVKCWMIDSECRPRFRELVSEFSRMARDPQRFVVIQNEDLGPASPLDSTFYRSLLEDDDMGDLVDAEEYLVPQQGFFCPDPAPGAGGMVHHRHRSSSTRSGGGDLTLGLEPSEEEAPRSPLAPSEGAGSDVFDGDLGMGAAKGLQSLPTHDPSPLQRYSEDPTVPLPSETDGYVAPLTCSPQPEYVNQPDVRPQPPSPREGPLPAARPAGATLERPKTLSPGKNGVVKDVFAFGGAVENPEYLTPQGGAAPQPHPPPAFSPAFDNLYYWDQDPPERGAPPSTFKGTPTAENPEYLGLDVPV
The target in experiment [3] is Vascular endothelial growth factor receptor 2 (Homo sapiens, UniProt P35968). Briefly: Inhibition of N-terminal GST-His6-thrombin cleavage site-fused human VEGFR2 (Asp805 to Val1356 residues) expressed in baculovirus expression system using biotinylated gastrin precursor at Tyr87 as substrate preincubated for 5 mins followed by substrate addition measured after 30 mins by DELFIA method.
Sequence of Vascular endothelial growth factor receptor 2 (P35968 whole entry, the tested form may be a part): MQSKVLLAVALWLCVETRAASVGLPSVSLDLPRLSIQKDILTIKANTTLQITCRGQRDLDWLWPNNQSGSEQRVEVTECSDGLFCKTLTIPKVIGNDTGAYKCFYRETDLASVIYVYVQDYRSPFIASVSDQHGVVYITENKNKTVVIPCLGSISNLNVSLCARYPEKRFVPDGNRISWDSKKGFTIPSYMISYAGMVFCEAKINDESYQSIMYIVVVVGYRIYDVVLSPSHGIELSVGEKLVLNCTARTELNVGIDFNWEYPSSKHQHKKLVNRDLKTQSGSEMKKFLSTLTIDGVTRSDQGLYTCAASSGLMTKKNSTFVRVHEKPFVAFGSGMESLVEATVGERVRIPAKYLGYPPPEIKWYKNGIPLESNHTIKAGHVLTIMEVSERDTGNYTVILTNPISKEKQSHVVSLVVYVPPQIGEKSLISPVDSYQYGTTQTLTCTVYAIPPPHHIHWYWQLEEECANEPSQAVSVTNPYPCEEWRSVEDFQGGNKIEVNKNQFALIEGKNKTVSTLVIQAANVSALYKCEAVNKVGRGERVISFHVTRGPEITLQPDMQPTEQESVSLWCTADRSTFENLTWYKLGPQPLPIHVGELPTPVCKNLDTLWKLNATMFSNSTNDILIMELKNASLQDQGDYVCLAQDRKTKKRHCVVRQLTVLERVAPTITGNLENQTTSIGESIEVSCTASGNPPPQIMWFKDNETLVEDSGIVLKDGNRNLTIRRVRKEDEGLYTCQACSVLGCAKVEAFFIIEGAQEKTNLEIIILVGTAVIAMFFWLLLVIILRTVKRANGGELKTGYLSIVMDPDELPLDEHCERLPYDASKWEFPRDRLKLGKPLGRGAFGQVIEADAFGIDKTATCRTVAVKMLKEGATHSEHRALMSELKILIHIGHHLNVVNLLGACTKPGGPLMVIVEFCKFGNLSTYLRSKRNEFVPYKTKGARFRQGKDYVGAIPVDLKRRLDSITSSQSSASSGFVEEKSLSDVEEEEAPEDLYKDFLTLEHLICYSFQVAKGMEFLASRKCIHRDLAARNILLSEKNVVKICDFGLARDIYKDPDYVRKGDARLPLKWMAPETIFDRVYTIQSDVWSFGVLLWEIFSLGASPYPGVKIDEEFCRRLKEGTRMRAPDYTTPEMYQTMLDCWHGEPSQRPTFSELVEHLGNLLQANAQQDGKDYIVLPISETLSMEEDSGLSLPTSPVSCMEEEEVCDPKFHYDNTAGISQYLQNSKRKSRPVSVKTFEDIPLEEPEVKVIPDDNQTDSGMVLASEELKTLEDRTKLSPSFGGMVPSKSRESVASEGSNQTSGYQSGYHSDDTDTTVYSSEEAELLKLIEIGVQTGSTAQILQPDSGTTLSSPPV

As a reminder, the IC50 is the concentration that inhibits the measured activity by half. A high value points to lower potency. For the molecule `O=C(CCCCCN1CCN(Cc2ccc(-c3cc4c(NCc5ccccc5)ncnc4[nH]3)cc2)CC1)NO`, the IC50 in experiment [1], in experiment [2] and in experiment [3] was 0.1 to 1 µM in each case.

For `C#Cc1cccc(Nc2ncnc3cc(OC)c(OCC(=O)NO)cc23)c1`, in experiment [2], the IC50 was no more than 0.1 µM.

In experiment [3], `O=C(CCCCOc1cc(Oc2ccc(NC(=O)Nc3ccc(Cl)c(C(F)(F)F)c3)cc2)ccn1)NO` gave an IC50 of no more than 0.1 µM.

`C[C@@H](Nc1ncnc2[nH]c(-c3ccc(C(=O)NO)cc3)cc12)c1ccccc1`: the IC50 in experiment [1] was no more than 0.1 µM; in experiment [2], no more than 0.1 µM; in experiment [3], 0.1 to 1 µM.

For `C[C@@H](Nc1ncnc2[nH]c(-c3ccc(CNCc4ccc(C(=O)NO)cc4)cc3)cc12)c1ccccc1`, the IC50 was no more than 0.1 µM in experiment [1], 0.1 to 1 µM in experiment [2] and 0.1 to 1 µM in experiment [3].

In the case of `C[C@@H](Nc1ncnc2[nH]c(-c3ccc(NC(=O)CCCCCCC(=O)NO)cc3)cc12)c1ccccc1`, the IC50 was no more than 0.1 µM in experiment [1], 0.1 to 1 µM in experiment [2] and 0.1 to 1 µM in experiment [3].

For `C[C@@H](Nc1ncnc2[nH]c(-c3ccc(CN4CCN(CCCCCCC(=O)NO)CC4)cc3)cc12)c1ccccc1`, the IC50 is no more than 0.1 µM in experiment [1], no more than 0.1 µM in experiment [2] and 0.1 to 1 µM in experiment [3].

`O=C(CCCCCCOc1ccc2ncnc(Nc3ccc(OCc4cccc(F)c4)c(Cl)c3)c2c1)NO` showed an IC50 in experiment [2] of no more than 0.1 µM.

As to `C[C@@H](Nc1ncnc2[nH]c(-c3ccc(CNCCCCCCC(=O)NO)cc3)cc12)c1ccccc1`, the IC50 in experiment [1] was no more than 0.1 µM; in experiment [2], 0.1 to 1 µM; in experiment [3] it was 0.1 to 1 µM.

On to `C[C@@H](Nc1ncnc2[nH]c(-c3ccc(CNCC(=O)NO)cc3)cc12)c1ccccc1`, for which the IC50 in experiment [1] and in experiment [2] was 1 to 10 µM throughout.

For the molecule `C[C@@H](Nc1ncnc2[nH]c(-c3ccc(OCCCCCCC(=O)NO)cc3)cc12)c1ccc(F)cc1`, the IC50 in experiment [1] fell in the range of 0.1 to 1 µM; in experiment [2], 0.1 to 1 µM; in experiment [3], 1 to 10 µM.

In experiment [2], `C[C@@H](Nc1ncnc2[nH]c(-c3ccc(CN4CCC(NCCCCCCCC(=O)NO)CC4)cc3)cc12)c1ccccc1` showed an IC50 of no more than 0.1 µM.

`C#Cc1cccc(Nc2ncnc3cc(OC)c(NC(=O)CCCCCCC(=O)NO)cc23)c1` came in with an IC50 in experiment [2] of 0.1 to 1 µM.

As to `C[C@@H](Nc1ncnc2[nH]c(-c3ccc(CNCc4ccc(/C=C/C(=O)NO)cc4)cc3)cc12)c1ccccc1`, the IC50 in experiment [1], in experiment [2] and in experiment [3] was no less than 10 µM each time.

With `C[C@@H](Nc1ncnc2[nH]c(-c3ccc(CN4CCN(CCCC(=O)NO)CC4)cc3)cc12)c1ccccc1`, the results for the IC50 in experiment [1], in experiment [2] and in experiment [3] were no more than 0.1 µM, no more than 0.1 µM and 0.1 to 1 µM, respectively.

Consider `C[C@@H](Nc1ncnc2c1cc(-c1ccc(C(=O)NCCNCCCCCCC(=O)NO)cc1)n2C)c1ccccc1`, for which the IC50 lay within 0.1 to 1 µM in experiment [2] and 1 to 10 µM in experiment [3].

Take `C[C@@H](Nc1ncnc2[nH]c(-c3ccc(OCCCCCCC(=O)NO)cc3)cc12)c1ccccc1`: the results for the IC50 in experiment [1], in experiment [2] and in experiment [3] were no more than 0.1 µM, 0.1 to 1 µM and no more than 0.1 µM, respectively.

As for `Cc1[nH]c(/C=C2\C(=O)Nc3ccc(F)cc32)c(C)c1C(=O)NCCOc1ccc(/C=C/C(=O)NO)cc1`, the IC50 in experiment [3] is no more than 0.1 µM.

In the case of `C[C@@H](Nc1ncnc2[nH]c(-c3ccc(CNCCCCCC(=O)NO)cc3)cc12)c1ccccc1`, the IC50 in experiment [1] was no more than 0.1 µM; in experiment [2], 0.1 to 1 µM; in experiment [3] it was 0.1 to 1 µM.

Molecule `C#Cc1cccc(Nc2ncnc3cc(OCCCCCCC(=O)NO)c(OCCOC)cc23)c1` registered an IC50 in experiment [2] of 0.1 to 1 µM.

For `C[C@@H](Nc1ncnc2[nH]c(-c3ccc(NC(=O)CCC(=O)NO)cc3)cc12)c1ccccc1`, the figures for the IC50 in experiment [1], in experiment [2] and in experiment [3] were no more than 0.1 µM, 0.1 to 1 µM and 0.1 to 1 µM, respectively.

`COc1cc2ncnc(Nc3ccc(F)c(Cl)c3)c2cc1SCCCCC(=O)NO` had an IC50 in experiment [2] of no more than 0.1 µM.

In experiment [3], `Cc1[nH]c(/C=C2\C(=O)Nc3ccc(F)cc32)c(C)c1C(=O)NCCCCCC(=O)N(C)O` registered an IC50 of no more than 0.1 µM.

With `COc1cc2ncnc(Nc3ccc(F)c(Cl)c3)c2cc1OCCCCCCC(=O)NO`, the IC50 in experiment [1] was 0.0031 µM; in experiment [2], no more than 0.1 µM; in experiment [3], 0.1 to 1 µM.

Take `C[C@@H](Nc1ncnc2[nH]c(-c3ccc(NCc4ccc(C(=O)NO)cc4)cc3)cc12)c1ccccc1`: the results for the IC50 in experiment [1], in experiment [2] and in experiment [3] were no more than 0.1 µM, 0.1 to 1 µM and 1 to 10 µM, respectively.

Consider `C[C@@H](Nc1ncnc2[nH]c(-c3ccc(NC(=O)CCCC(=O)NO)cc3)cc12)c1ccccc1`, for which the values for the IC50 in experiment [1], in experiment [2] and in experiment [3] were no more than 0.1 µM, 0.1 to 1 µM and 0.1 to 1 µM, respectively.

For `C#Cc1cc(Nc2ncnc3cc(OC)c(OCCCCCCC(=O)NO)cc23)ccc1O`, the IC50 in experiment [2] is no more than 0.1 µM.

`O=C(CCCCCCNCc1cc(Oc2ccc(NC(=O)Nc3ccc(Cl)c(C(F)(F)F)c3)cc2)ccn1)NO` returned an IC50 in experiment [3] of 0.1 to 1 µM.

`C[C@@H](Nc1ncnc2[nH]c(-c3ccc(OCCNCCCCCCCC(=O)NO)cc3)cc12)c1ccccc1` showed an IC50 in experiment [2] of no more than 0.1 µM.

As for `C[C@@H](Nc1ncnc2[nH]c(-c3ccc(OCCCC(=O)NO)cc3)cc12)c1ccccc1`, the IC50 in experiment [1] is no more than 0.1 µM; in experiment [2] it was 0.1 to 1 µM; in experiment [3], 0.1 to 1 µM.

On to `COCCOc1cc2c(Nc3ccc(F)c(Cl)c3)ncnc2cc1OCCCCCCC(=O)NO`, for which the concentration for half-maximal inhibition (IC50) in experiment [2] was 0.1 to 1 µM.

Regarding `C[C@@H](Nc1ncnc2[nH]c(-c3ccc(OCCNCCCCCCC(=O)NO)cc3)cc12)c1ccccc1`, the IC50 in experiment [1], in experiment [2] and in experiment [3] was no more than 0.1 µM in each case.

`COCCOc1cc2ncnc(Nc3ccc(F)c(Cl)c3)c2cc1OCCCCCCC(=O)NO` had an IC50 in experiment [2] of 0.1 to 1 µM.

For the molecule `C[C@@H](Nc1ncnc2[nH]c(-c3ccc(OCCCCC(=O)NO)cc3)cc12)c1ccccc1`, the values for the 50% inhibitory concentration (IC50) in experiment [1], in experiment [2] and in experiment [3] were no more than 0.1 µM, 0.1 to 1 µM and 0.1 to 1 µM, respectively.

On to `COc1cc2c(Nc3ccc(F)c(Cl)c3)ncnc2cc1OCCCCCCC(=O)NO`, for which, in experiment [2], the IC50 is 0.1 to 1 µM.

Turning to `C[C@@H](Nc1ncnc2[nH]c(-c3ccc(CN4CCN(CCCCC(=O)NO)CC4)cc3)cc12)c1ccccc1`, the IC50 is no more than 0.1 µM in experiment [1], 0.1 to 1 µM in experiment [2] and 0.1 to 1 µM in experiment [3].

In experiment [3], `O=C(CCCC(=O)NCc1cc(Oc2ccc(NC(=O)Nc3ccc(Cl)c(C(F)(F)F)c3)cc2)ccn1)NO` registered an IC50 of no more than 0.1 µM.

Regarding `C[C@@H](Nc1ncnc2[nH]c(-c3ccc(CN4CCN(CCC(=O)NO)CC4)cc3)cc12)c1ccccc1`, the IC50 in experiment [1] was no more than 0.1 µM; in experiment [2], no more than 0.1 µM; in experiment [3], 0.1 to 1 µM.

As to `O=C(CCCCCCOc1ccc(-c2cc3c(NCc4ccccc4)ncnc3[nH]2)cc1)NO`, the IC50 in experiment [1] is 0.1 to 1 µM; in experiment [2] it was 1 to 10 µM; in experiment [3], 1 to 10 µM.

On to `C[C@@H](Nc1ncnc2[nH]c(-c3ccc(C(=O)NCCNCCCCCCC(=O)NO)cc3)cc12)c1ccccc1`, for which the IC50 in experiment [1] is no more than 0.1 µM; in experiment [2] it was 0.1 to 1 µM; in experiment [3], 0.1 to 1 µM.

For the molecule `COc1cc2ncnc(Nc3ccc(F)c(Cl)c3)c2cc1SCCCCCCC(=O)NO`, the IC50 in experiment [2] is no more than 0.1 µM.

On to `C[C@@H](Nc1ncnc2[nH]c(-c3ccc(CN4CCN(CCCCCC(=O)NO)CC4)cc3)cc12)c1ccccc1`, for which the IC50 in experiment [2] and in experiment [3] was 0.1 to 1 µM throughout.

With `C[C@@H](Nc1ncnc2[nH]c(-c3ccc(OCC(=O)NO)cc3)cc12)c1ccccc1`, the IC50 in experiment [1] is no more than 0.1 µM; in experiment [2] it was no more than 0.1 µM; in experiment [3], 1 to 10 µM.

On to `C[C@@H](Nc1ncnc2[nH]c(-c3ccc(OCCCCCC(=O)NO)cc3)cc12)c1ccccc1`, for which the IC50 in experiment [1] is no more than 0.1 µM; in experiment [2], 0.1 to 1 µM; in experiment [3], 1 to 10 µM.

Regarding `C[C@@H](Nc1ncnc2[nH]c(-c3ccc(NCc4ccc(/C=C/C(=O)NO)cc4)cc3)cc12)c1ccccc1`, the IC50 in experiment [1] was no more than 0.1 µM; in experiment [3] it was 1 to 10 µM.

With `O=C(CCCCCNCc1ccc(-c2ccc3ncnc(Nc4ccc(OCc5cccc(F)c5)c(Cl)c4)c3c2)o1)NO`, in experiment [2], the IC50 was no more than 0.1 µM.

In the case of `O=C(Nc1ccc(Oc2ccnc(C(=O)NO)c2)cc1)Nc1ccc(Cl)c(C(F)(F)F)c1`, the IC50 in experiment [3] was in the range of 1 to 10 µM.

Molecule `COc1cc2ncnc(Nc3ccc(OCc4cccc(F)c4)c(Cl)c3)c2cc1OCCCCCCC(=O)NO` gave an IC50 in experiment [2] of no more than 0.1 µM.

`C[C@@H](Nc1ncnc2[nH]c(-c3ccc(C(=O)NCCNCCC(=O)NO)cc3)cc12)c1ccccc1`: the IC50 in experiment [1] is no more than 0.1 µM; in experiment [2], 0.1 to 1 µM; in experiment [3], 0.1 to 1 µM.

As to `C[C@@H](Nc1ncnc2[nH]c(-c3ccc(NC(=O)CCCCC(=O)NO)cc3)cc12)c1ccccc1`, the IC50 was no more than 0.1 µM in experiment [1], 0.1 to 1 µM in experiment [2] and 0.1 to 1 µM in experiment [3].

Turning to `C[C@@H](Nc1ncnc2[nH]c(-c3ccc(NCCCCCC(=O)NO)cc3)cc12)c1ccccc1`, the IC50 in experiment [1], in experiment [2] and in experiment [3] was no more than 0.1 µM each time.

With `C[C@@H](Nc1ncnc2[nH]c(-c3ccc(NCCCCCCC(=O)NO)cc3)cc12)c1ccccc1`, the IC50 was no more than 0.1 µM in experiment [1], no more than 0.1 µM in experiment [2] and 0.1 to 1 µM in experiment [3].

Regarding `C[C@@H](Nc1ncnc2[nH]c(-c3ccc(C(=O)NCCNCCCCCC(=O)NO)cc3)cc12)c1ccccc1`, the IC50 in experiment [1] was no more than 0.1 µM; in experiment [2] it was 0.1 to 1 µM; in experiment [3], 0.1 to 1 µM.

`O=C(CCCCCCCNCc1cc(Oc2ccc(NC(=O)Nc3ccc(Cl)c(C(F)(F)F)c3)cc2)ccn1)NO` showed an IC50 in experiment [3] of 0.1 to 1 µM.

Turning to `C#Cc1cccc(Nc2ncnc3cc(OCCCCCCC(=O)NO)c(OC)cc23)c1`, the IC50 in experiment [2] was 0.1 to 1 µM.

For `O=C(CCCC(=O)Nc1cc(Oc2ccc(NC(=O)Nc3ccc(Cl)c(C(F)(F)F)c3)cc2)ccn1)NO`, in experiment [3], the concentration for half-maximal inhibition (IC50) is no more than 0.1 µM.
